We go through 58 compounds from BindingDB's records for doi:10.7270/Q2028PXQ (The Scripps Research Institute Molecular Screening Center, 2007).

Molecules are shown by their SMILES. pEC50: −log10 of the molar value.

The target in this test is Steroidogenic factor 1 (Homo sapiens, UniProt Q13285). Nature of the test: SF-1 driven luciferase reporter response, dose response, counter-screen for RORA activator project, CHO-K1 cells (AID 695). For orientation: In a reporter assay the amount or activity of a reporter protein is the signal.
[1] abbreviates: inactive by the depositor's call.

Steroidogenic factor 1, sequence (Q13285 whole entry): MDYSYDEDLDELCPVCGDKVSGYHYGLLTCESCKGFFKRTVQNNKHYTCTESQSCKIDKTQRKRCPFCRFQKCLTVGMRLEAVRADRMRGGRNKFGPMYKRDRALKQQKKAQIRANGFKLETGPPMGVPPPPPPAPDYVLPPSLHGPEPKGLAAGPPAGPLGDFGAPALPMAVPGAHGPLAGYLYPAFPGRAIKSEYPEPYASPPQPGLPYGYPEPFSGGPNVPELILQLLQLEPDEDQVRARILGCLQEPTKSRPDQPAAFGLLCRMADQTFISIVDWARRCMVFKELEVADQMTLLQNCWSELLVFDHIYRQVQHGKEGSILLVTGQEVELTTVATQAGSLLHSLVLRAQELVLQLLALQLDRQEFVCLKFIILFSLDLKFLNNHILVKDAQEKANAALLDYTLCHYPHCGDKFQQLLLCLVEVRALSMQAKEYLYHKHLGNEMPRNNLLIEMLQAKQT

On to `CCOC(=O)Nc1ccc2c(c1)Nc1ccccc1S2` [(10H-Phenothiazin-2-yl)-carbamic acid ethyl ester], for which the pEC50 (commonly the EC50 on a negative log10 scale, so that one unit is a factor of ten) was less than 5.44. The same measure, in the same setting: the figure for `Cn1cccc1C(=O)OCc1csc(-c2ccccc2)n1` [(2-phenyl-1,3-thiazol-4-yl)methyl 1-methylpyrrole-2-carboxylate] is 6.89; for `Cc1nc(N=CN(C)C)sc1C(=O)Nc1ccccc1` [SMR000107046] it is 5.21. On to `O=C(NC1CCCC1)c1cc(-c2cccs2)on1` [MLS000087238], for which the pEC50 under setting [1] was 4.96. `C=CCOc1ccc(C=CC(C)N=O)cc1` (stereo not drawn) [(E)-4-(4-allyloxyphenyl)but-3-en-2-one oxime] showed a pEC50 of 5.99. Still for that read-out and setting: the figure for `CCOc1ccc2nc(N3CCC(C(=O)N4CCN(c5ccccn5)CC4)CC3)sc2c1` [MLS000119552] is less than 4.00. Still for that read-out and setting: the figure for `COc1cc(C)c(C(C)C)cc1S(=O)(=O)n1cnc(C)c1` [1-(2-methoxy-4-methyl-5-propan-2-yl-phenyl)sulfonyl-4-methyl-imidazole] is 5.88; for `COc1ccc(C(O)P(=O)(O)CCc2ccccc2)cc1` (stereo not drawn) [MLS000038577] it is less than 4.00; for `Clc1ccc(-c2nnc(-c3ccccc3Cl)o2)cc1` [2-(2-chlorophenyl)-5-(4-chlorophenyl)-1,3,4-oxadiazole] it is 6.63.

The compound `Cc1cc(NC(=O)c2oc3ccccc3c2C)ccc1-n1cnnn1` [3-Methyl-benzofuran-2-carboxylic acid (3-methyl-4-tetrazol-1-yl-phenyl)-amide] had a pEC50 of 5.49. For the compound `O=C1OC(N2CCN(Cc3ccccc3)CC2)c2ccccc21` (stereo not drawn) [3-(4-benzylpiperazin-1-yl)-3H-2-benzofuran-1-one], the pEC50 was less than 4.00.

Regarding `CCc1nnc2c3cnn(-c4ccccc4)c3ncn12` [MLS000080478], the pEC50 was 5.29. Still for that read-out and setting: to `Cc1cc(NCCOCCO)n2ncc(-c3ccc(Cl)cc3)c2n1` [2-[2-[[3-(4-chlorophenyl)-5-methyl-7-pyrazolo[1,5-a]pyrimidinyl]amino]ethoxy]ethanol] belongs 6.31; to `COCCOC(=O)c1[nH]c2c(c1C)C(=O)CC(c1cc(OC)ccc1OC)C2` (stereo not drawn) [2-methoxyethyl 6-(2,5-dimethoxyphenyl)-3-methyl-4-oxo-1,5,6,7-tetrahydroindole-2-carboxylate], 5.12.

`Cc1cccn2cc(-c3ccccc3)nc12` [8-methyl-2-phenyl-imidazo[1,2-a]pyridine] had a pEC50 of 6.72. `COc1cccc(-c2noc(-c3cccs3)n2)c1` [3-(3-methoxyphenyl)-5-(2-thienyl)-1,2,4-oxadiazole] had a pEC50 of 6.65.

The compound `Nc1c(C(=O)NCCN2CCOCC2)c2nc3ccccc3nc2n1-c1ccc2c(c1)OCO2` [2-amino-1-(1,3-benzodioxol-5-yl)-N-(2-morpholin-4-ylethyl)pyrrolo[3,2-b]quinoxaline-3-carboxamide] gave a pEC50 of less than 4.96. Still for that read-out and setting: the figure for `Cc1cc(N)c(NC2=CC(=O)CC(C)(C)C2)cc1C` [3-(2-amino-4,5-dimethyl-anilino)-5,5-dimethyl-cyclohex-2-en-1-one] is less than 4.96; for `CC1=CCC(COC(=O)Nc2ccccc2)CC1` (stereo not drawn) [(4-methylcyclohex-3-en-1-yl)methyl N-phenylcarbamate] it is 5.91. In the case of `O=c1c2ccccc2nc2ccc(NCc3ccco3)nn12` [2-(2-furanylmethylamino)-10-pyridazino[6,1-b]quinazolinone], the pEC50 under setting [1] is 4.56. Turning to `CCOC(=O)CSc1nc2cc(OCC)ccc2cc1C#N` [(3-Cyano-7-ethoxy-quinolin-2-ylsulfanyl)-acetic acid ethyl ester], the pEC50 is 5.48. The same measure, in the same setting: the figure for `CCOc1cc(N2CCOCC2)c(OCC)cc1NS(=O)(=O)c1ccc(Cl)s1` [5-chloranyl-N-(2,5-diethoxy-4-morpholin-4-yl-phenyl)thiophene-2-sulfonamide] is 5.91. Same read-out and setting: the figure for `COc1ccc2nc(NC(=O)CSc3nnc(-c4ccoc4C)n3C)sc2c1` [MLS000073639] is 5.32; for `CC(=O)C(C)Oc1ccc2c3c(c(=O)oc2c1C)CCCC3` (stereo not drawn) [3-(2-keto-1-methyl-propoxy)-4-methyl-7,8,9,10-tetrahydrobenzo[c]chromen-6-one] it is 6.09.

Compound `O=C(c1ccc(-c2nnc(-c3ccccc3)o2)cc1)N1CCCCCC1` [1-azepanyl-[4-(5-phenyl-1,3,4-oxadiazol-2-yl)phenyl]methanone] had a pEC50 of 6.60.

Take `CCOc1ccc2nc(NC(=O)c3cnccn3)sc2c1` [MLS000070707]: the pEC50 is 6.85. The same measure, in the same setting: to `CCOc1ccc(C=CC(C)N=O)cc1` (stereo not drawn) [(Z)-4-(4-ethoxyphenyl)-3-buten-2-one oxime] belongs less than 6.39; to `Cc1c(C(=O)OCC2CCCO2)[nH]c2c1C(=O)CC(c1ccco1)C2` (stereo not drawn) [oxolan-2-ylmethyl 6-(furan-2-yl)-3-methyl-4-oxo-1,5,6,7-tetrahydroindole-2-carboxylate], 5.91. Regarding `COc1ccc(CCC(=O)Nc2ccc3c(c2)OCCO3)cc1` [MLS000110197], the pEC50 was less than 4.00. Take `CC(C)CNS(=O)(=O)c1ccc(C(=O)Nc2ccc3c(c2)OCCO3)cc1` [MLS000032888]: the pEC50 is 5.26.

With `O=C(NCc1cccs1)c1noc2c1CCCC2` [MLS000087354], the pEC50 is 5.30. In the case of `O=C(CSc1nc[nH]n1)Nc1nnc(-c2ccccc2)s1` [SMR000091719], the pEC50 under setting [1] is 4.90. Consider `Clc1ccccc1OCCn1cnc2ccccc21` [1-[2-(2-chloranylphenoxy)ethyl]benzimidazole], for which the pEC50 was 5.44. On the same count and under the same terms, the figure for `CCN(CC)C(=O)Oc1ccc2c(=O)c(-c3ccccc3)coc2c1` [(4-oxidanylidene-3-phenyl-chromen-7-yl) N,N-diethylcarbamate] is 6.08; for `Cc1ccc(-c2nc(C#N)c(NCc3ccco3)o2)cc1` [5-(2-furanylmethylamino)-2-(4-methylphenyl)-4-oxazolecarbonitrile] it is 5.47; for `CCOC(=O)c1ccccc1NC(=O)CSc1nnnn1C1CCCCC1` [2-[2-(1-Cyclohexyl-1H-tetrazol-5-ylsulfanyl)-acetylamino]-benzoic acid ethyl ester] it is less than 4.00.

With `COc1ccccc1-c1nc(-c2ccncc2)no1` [4-[5-(2-Methoxy-phenyl)-[1,2,4]oxadiazol-3-yl]-pyridine], the negative-log EC50 (pEC50) is 5.91. In turn, `CN1CCN(S(=O)(=O)c2ccc(Br)s2)CC1` [1-(5-bromanylthiophen-2-yl)sulfonyl-4-methyl-piperazine] had a pEC50 of less than 4.00.

In the case of `O=C(Nc1ccc(N2CCCCC2)cc1)c1cncc(Br)c1` [5-bromanyl-N-(4-piperidin-1-ylphenyl)pyridine-3-carboxamide], the pEC50 was 5.97. Still for that read-out and setting: to `O=C(Nc1ccc2nc(-c3ccc(Br)o3)[nH]c2c1)c1cccs1` [SMR000046012] belongs 5.39.

`COc1ccc(C(=O)Nc2cc(C)on2)cc1` [4-methoxy-N-(5-methyl-1,2-oxazol-3-yl)benzamide] showed a pEC50 of 6.04.

`Cc1ccccc1Cn1ccc(NC(=O)c2onc(C)c2Cl)n1` [4-chloranyl-3-methyl-N-[1-[(2-methylphenyl)methyl]pyrazol-3-yl]-1,2-oxazole-5-carboxamide] showed a pEC50 of 5.14. Same read-out and setting: to `Oc1ccc(Cl)cc1C=Nc1nc2ccccc2[nH]1` [SMR000103225] belongs less than 4.00; to `CCCCOC(=O)C(C)Oc1ccc(=O)n(-c2ccccc2)n1` (stereo not drawn) [2-(6-keto-1-phenyl-pyridazin-3-yl)oxypropionic acid butyl ester], less than 4.00.

The compound `CCn1c(Cn2nnc(-c3ccccc3)n2)nnc1SCC(=O)Nc1ccc(C(C)=O)cc1` [MLS000068275] showed a pEC50 of 5.67.

Take `Cc1ccc2c(c1)c1c3n2CCCNC3CCC1` (stereo not drawn) [MLS000105423]: the pEC50 is less than 4.00. On the same count and under the same terms, the figure for `COc1ccc(Nc2oc(-c3ccccc3Cl)nc2C#N)cc1` [2-(2-chlorophenyl)-5-(4-methoxyanilino)-1,3-oxazole-4-carbonitrile] is 5.56; for `COc1cccc(NC(=O)c2nnn(Cc3ccc(Br)cc3F)c2N)c1` [5-amino-1-(4-bromo-2-fluoro-benzyl)-N-(3-methoxyphenyl)triazole-4-carboxamide] it is 5.36. With `COc1cccc(-c2noc(-c3cccnc3)n2)c1` [3-(3-methoxyphenyl)-5-(3-pyridinyl)-1,2,4-oxadiazole], the pEC50 was 5.76. The same measure, in the same setting: the figure for `COc1ccc(C(=O)n2c(-c3ccco3)nc3ccccc32)cc1` [MLS000039368] is 5.32. Still for that read-out and setting: to `CCOc1ccc(-c2nc(C#N)c(NC3CC3)o2)cc1` [5-(cyclopropylamino)-2-(4-ethoxyphenyl)-1,3-oxazole-4-carbonitrile] belongs 5.40.

`COc1ccccc1-c1nnc(NC(C)=O)s1` [MLS000041972] had a pEC50 of 5.89. Still for that read-out and setting: the figure for `O=C(Nc1nnc(C23CC4CC(CC(C4)C2)C3)s1)c1ccco1` [N-[5-(1-adamantyl)-1,3,4-thiadiazol-2-yl]furan-2-carboxamide] is 6.59.

For `CCn1c(-c2ccc(N(C)C)cc2)nc2ccccc21` [4-(1-ethyl-2-benzimidazolyl)-N,N-dimethylaniline], the pEC50 was 6.27. Same read-out and setting: to `COC(=O)c1c(NC(=O)CC2SCC(C(=O)OC)NC2=O)sc2c1CCCC2` (stereo not drawn) [6-[2-[(3-carbomethoxy-4,5,6,7-tetrahydrobenzothiophen-2-yl)amino]-2-keto-ethyl]-5-keto-thiomorpholine-3-carboxylic acid methyl ester] belongs less than 4.00.

On to `O=C(c1ccco1)N1CCN(c2ncnc3c(-c4ccccc4)nsc23)CC1` [2-furanyl-[4-(3-phenyl-7-isothiazolo[4,5-d]pyrimidinyl)-1-piperazinyl]methanone], for which the pEC50 under setting [1] is 4.68.

`O=C1N(CCCN2C(=O)C3(OCCO3)c3ccccc32)c2ccccc2C12OCCO2` [1'-[3-(2'-ketospiro[1,3-dioxolane-2,3'-indoline]-1'-yl)propyl]spiro[1,3-dioxolane-2,3'-indoline]-2'-one] showed a pEC50 of less than 4.00. Same read-out and setting: to `Cc1ccc2nc(Nc3ccc4[nH]c(O)nc4c3)c(-n3nc(C)cc3C)nc2c1` [5-[[3-(3,5-dimethyl-1-pyrazolyl)-6-methyl-2-quinoxalinyl]amino]-1,3-dihydrobenzimidazol-2-one] belongs less than 5.91.
